Assays:
[1] = test system: Alopecurus myosuroides (ALOMY); experiment: Example B pre-emergence herbicidal activity, glasshouse pot test; assay type: in vivo; conditions: 312 h, first table (headed Post-Emergence, taken as pre-emergence), evaluated after 13 days, read-out: ALOMY activity (100=total damage to plant; 0=no damage to plant); for pest or weed control at 1000 g/ha: rate 1000 g/ha; for pest or weed control at 250 g/ha: rate 250 g/ha
Protocol: (§1) Seeds of a variety of test species are sown in standard soil in pots. After cultivation for one day (pre-emergence) or after 8 days cultivation (post-emergence) under controlled conditions in a glasshouse (at 24/16° C., day/night; 14 hours light; 65% humidity), the plants are sprayed with an aqueous spray solution derived from the formulation of the technical active ingredient in acetone/water (50:50) solution containing 0.5% Tween 20 (polyoxyethelyene sorbitan monolaurate, CAS RN 9005-64-5). The test plants are then grown in a glasshouse under controlled conditions in a glasshouse (at 24/16° C., day/night; 14 hours light; 65% humidity) and watered twice daily. After 13 days for pre and post-emergence, the test is evaluated (100=total damage to plant; 0=no damage to plant). Test Plants: Setaria faberi (SETFA), Alopecurus myosuroides (ALOMY), Echinochloa crus-galli (ECHCG), Avena fatua (AVEFA)

Avena fatua (AVEFA) [2] = experiment: as above; assay type: in vivo; conditions: 312 h, first table (headed Post-Emergence, taken as pre-emergence), evaluated after 13 days, read-out: AVEFA activity (100=total damage to plant; 0=no damage to plant); for pest or weed control at 1000 g/ha: rate 1000 g/ha; for pest or weed control at 250 g/ha: rate 250 g/ha
Protocol: as §1

[3] = test system: Echinochloa crus-galli (ECHCG); experiment: as above; assay type: in vivo; conditions: 312 h, first table (headed Post-Emergence, taken as pre-emergence), evaluated after 13 days, read-out: ECHCG activity (100=total damage to plant; 0=no damage to plant); for pest or weed control at 1000 g/ha: rate 1000 g/ha; for pest or weed control at 250 g/ha: rate 250 g/ha
Protocol: as §1

Setaria faberi (SETFA) [4] = experiment: as above; assay type: in vivo; conditions: 312 h, first table (headed Post-Emergence, taken as pre-emergence), evaluated after 13 days, read-out: SETFA activity (100=total damage to plant; 0=no damage to plant); for pest or weed control at 1000 g/ha: rate 1000 g/ha; for pest or weed control at 250 g/ha: rate 250 g/ha
Protocol: as §1

[5] = test system: Alopecurus myosuroides (ALOMY); experiment: Example B post-emergence herbicidal activity, glasshouse pot test; assay type: in vivo; conditions: 312 h, evaluated after 13 days, read-out: ALOMY post-emergence activity (100=total damage to plant; 0=no damage to plant); for pest or weed control at 1000 g/ha: rate 1000 g/ha; for pest or weed control at 250 g/ha: rate 250 g/ha
Protocol: as §1

Avena fatua (AVEFA) [6] = experiment: as above; assay type: in vivo; conditions: 312 h, evaluated after 13 days, read-out: AVEFA post-emergence activity (100=total damage to plant; 0=no damage to plant); for pest or weed control at 1000 g/ha: rate 1000 g/ha; for pest or weed control at 250 g/ha: rate 250 g/ha
Protocol: as §1

[7] = test system: Echinochloa crus-galli (ECHCG); experiment: as above; assay type: in vivo; conditions: 312 h, evaluated after 13 days, read-out: ECHCG post-emergence activity (100=total damage to plant; 0=no damage to plant); for pest or weed control at 1000 g/ha: rate 1000 g/ha; for pest or weed control at 250 g/ha: rate 250 g/ha
Protocol: as §1

Setaria faberi (SETFA) [8] = experiment: as above; assay type: in vivo; conditions: 312 h, evaluated after 13 days, read-out: SETFA post-emergence activity (100=total damage to plant; 0=no damage to plant); for pest or weed control at 1000 g/ha: rate 1000 g/ha; for pest or weed control at 250 g/ha: rate 250 g/ha
Protocol: as §1

SMILES | pest or weed control at 1000 g/ha [1] [%] | pest or weed control at 1000 g/ha (Avena fatua (AVEFA) [2]) [%] | pest or weed control at 1000 g/ha [3] [%] | pest or weed control at 1000 g/ha (Setaria faberi (SETFA) [4]) [%] | pest or weed control at 1000 g/ha [5] [%] | pest or weed control at 1000 g/ha (Avena fatua (AVEFA) [6]) [%] | pest or weed control at 1000 g/ha [7] [%] | pest or weed control at 1000 g/ha (Setaria faberi (SETFA) [8]) [%] | melting point [°C] | pest or weed control at 250 g/ha [1] [%] | pest or weed control at 250 g/ha (Avena fatua (AVEFA) [2]) [%] | pest or weed control at 250 g/ha [3] [%] | pest or weed control at 250 g/ha (Setaria faberi (SETFA) [4]) [%] | pest or weed control at 250 g/ha [5] [%] | pest or weed control at 250 g/ha (Avena fatua (AVEFA) [6]) [%] | pest or weed control at 250 g/ha [7] [%] | pest or weed control at 250 g/ha (Setaria faberi (SETFA) [8]) [%]
CON1CCC2(CC1)NC(=O)C(c1cc(C)ccc1C)=C2OC(=O)C(C)C [Compound P34] | 30 | 40 | 20 | 20 | 10 | 0 | 40 | 60 | 201 to 203 | – | – | – | – | – | – | – | –
CON1CCC2(CC1)NC(=O)C(c1ccc(Cl)cc1Cl)=C2OC(=O)N(C)CCC#N [Compound P39] | 0 | 0 | 30 | 60 | 10 | 0 | 40 | 50 | 171 to 172 | – | – | – | – | – | – | – | –
C=CCOC(=O)OC1=C(c2c(Cl)cccc2Cl)C(=O)NC12CCN(OC)CC2 [Compound P44] | 20 | 10 | 30 | 30 | 50 | 0 | 0 | 50 | 203 to 205 | – | – | – | – | – | – | – | –
C=CCOC(=O)OC1=C(c2c(C)cc(Br)cc2C)C(=O)NC12CCN(OC)CC2 [Compound P48] | 100 | 80 | 80 | 90 | 80 | 10 | 80 | 80 | 207 to 211 | – | – | – | – | – | – | – | –
CCOC(=O)OC1=C(c2c(C)cc(Br)cc2C)C(=O)NC12CCN(OC)CC2 [Compound P49] | 80 | 80 | 70 | 80 | 90 | 80 | 80 | 80 | 185 to 187 | – | – | – | – | – | – | – | –
CCOC(=O)OC1=C(c2cc(C3CC3)c(C)cc2C)C(=O)NC12CCN(OC)CC2 [Compound P55] | – | – | – | – | – | – | – | – | 174 to 176 | 10 | 0 | 40 | 60 | 60 | 60 | 70 | 80
CCOC(=O)OC1=C(c2ccc(Br)cc2Cl)C(=O)NC12CCN(OC)CC2 [Compound P66] | – | – | – | – | – | – | – | – | 199 to 201 | 30 | 10 | 0 | 10 | 90 | 70 | 100 | 90
CON1CCC2(CC1)NC(=O)C(c1ccc(Br)cc1C)=C2OC(=O)C(C)(C)C [Compound P69] | – | – | – | – | – | – | – | – | 239 to 240 | 40 | 30 | 90 | 100 | 90 | 60 | 90 | 90
CON1CCC2(CC1)NC(=O)C(c1ccc(Cl)cc1Cl)C2=O (stereo not drawn) [Compound T2] | 60 | 40 | 0 | 30 | 100 | 90 | 100 | 100 | 221 to 223 | – | – | – | – | – | – | – | –
CON1CCC2(CC1)NC(=O)C(c1c(Cl)cccc1Cl)C2=O (stereo not drawn) [Compound T3] | 40 | 0 | 0 | 80 | 60 | 0 | 0 | 70 | 257 to 260 | – | – | – | – | – | – | – | –
CON1CCC2(CC1)NC(=O)C(c1c(C)cc(Br)cc1C)C2=O (stereo not drawn) [Compound T12] | 70 | 80 | 20 | 90 | 80 | 90 | 80 | 90 | 260 to 264 | – | – | – | – | – | – | – | –
